In PMC5601625, “Defining a therapeutic window for kinase inhibitors in leukemia to avoid neutropenia” (Oncotarget, 2017):
Where two headings read alike, the source gives them in different places.

Columns and labels:
[1] = test system: KU-812; test: Cell Titer Glo cell viability assay, 48 h; assay type: cell-based, human; conditions: 48 h, mean of 2 independent experiments, 0 = less than 10 nM, cell line not given, read-out: IC50 of inhibitors on cell lines, m (mean)
Description: (§1) The activity of the kinase inhibitor collection against a panel of human leukemia cell lines was determined in cell viability assays run over 48 h using the Cell Titer Glo reagent.
(§2) Figure 1 Effects of kinase inhibition on the proliferation of leukemia cells A. Human leukemia cell lines were treated with duplicate serial dilutions of kinase inhibitors and the effect on cell viability was determined by Cell Titer Glo assay after 48 hours. […] HL-60 cells were treated with serial dilutions of mTor/PI3K B. and MEK C. inhibitors and the effect on cell viability was determined after 48 hours. Data shown is the mean ± SEM of 3 independent experiments.
(§3) Leukemia and lymphoma cell lines were grown in RPMI containing 10% FCS. […] Cell lines are routinely tested for mycoplasma and genotyped by short tandem repeating (STR) profiling to confirm identity.
(§4) Compounds were obtained from SynMedChem and dissolved at […] in DMSO. Serial 2-fold dilutions of each compound were prepared in DMSO using a liquid handling robot (Janus, Perkin Elmer). Each dilution (100nL) was transferred to duplicate tissue culture plates containing 50 μL of media containing 5 × 10^3 cells using a 384 well pin tool. Cells were incubated for 48 h and cell viability was determined using Cell Titer Glow reagents as described by the manufacturer (Promega). Data was acquired using a luminescent plate reader (Envision, Perkin Elmer) and analysed using Activity Base (IDBS, Guilford, UK) and visualised using Spotfire (TIBCO, Palo Alto, CA) as described previously. Each cell line was assayed in independent experiments on at least two occasions. […] Serial 2-fold dilutions of each compound were prepared in media containing 0.2% DMSO and 50 μl of each dilution was added to 10^4 cells in 50 μl of media. Cells were incubated for 48 h and cell viability was determined using Cell Titer Glow assay as described above.

[2] = test system: MOLT4; test: Cell Titer Glo cell viability assay, 48 h; assay type: cell-based, human; conditions: 48 h, mean of 2 independent experiments, 0 = less than 10 nM, cell line not given, read-out: IC50 of inhibitors on cell lines, m (mean)
Description: as §1, §2, §3, §4

[3] = test system: K562; test: Cell Titer Glo cell viability assay, 48 h; assay type: cell-based, human; conditions: 48 h, mean of 2 independent experiments, 0 = less than 10 nM, cell line not given, read-out: IC50 of inhibitors on cell lines, m (mean)
Description: as §1, §2, §3, §4

[4] = test system: MV4;11; test: Cell Titer Glo cell viability assay, 48 h; assay type: cell-based, human; conditions: 48 h, mean of 2 independent experiments, 0 = less than 10 nM, cell line not given, read-out: IC50 of inhibitors on cell lines, m (mean)
Description: as §1, §2, §3, §4

[5] = test system: OCI-AML3; test: Cell Titer Glo cell viability assay, 48 h; assay type: cell-based, human; conditions: 48 h, mean of 2 independent experiments, 0 = less than 10 nM, cell line not given, read-out: IC50 of inhibitors on cell lines, m (mean)
Description: as §1, §2, §3, §4

[6] = test system: U937; test: Cell Titer Glo cell viability assay, 48 h; assay type: cell-based, human; conditions: 48 h, mean of 2 independent experiments, 0 = less than 10 nM, cell line not given, read-out: IC50 of inhibitors on cell lines, m (mean)
Description: as §1, §2, §3, §4

[7] = test system: JURKAT; test: Cell Titer Glo cell viability assay, 48 h; assay type: cell-based, human; conditions: 48 h, mean of 2 independent experiments, 0 = less than 10 nM, cell line not given, read-out: IC50 of inhibitors on cell lines, m (mean)
Description: as §1, §2, §3, §4

[8] = test system: EOL-1; test: Cell Titer Glo cell viability assay, 48 h; assay type: cell-based, human; conditions: 48 h, mean of 2 independent experiments, 0 = less than 10 nM, cell line not given, read-out: IC50 of inhibitors on cell lines, m (mean)
Description: as §1, §2, §3, §4

[9] = test system: HL-60; test: Cell Titer Glo cell viability assay, 48 h; assay type: cell-based, human; conditions: 48 h, mean of 2 independent experiments, 0 = less than 10 nM, cell line not given, read-out: IC50 of inhibitors on cell lines, m (mean)
Description: as §1, §2, §3, §4

[10] = test system: HEL.92.1.7; test: Cell Titer Glo cell viability assay, 48 h; assay type: cell-based, human; conditions: 48 h, mean of 2 independent experiments, 0 = less than 10 nM, cell line not given, read-out: IC50 of inhibitors on cell lines, m (mean)
Description: as §1, §2, §3, §4

[11] = test system: MEG-01; test: Cell Titer Glo cell viability assay, 48 h; assay type: cell-based, human; conditions: 48 h, mean of 2 independent experiments, 0 = less than 10 nM, cell line not given, read-out: IC50 of inhibitors on cell lines, m (mean)
Description: as §1, §2, §3, §4

[12] = test system: THP-1; test: Cell Titer Glo cell viability assay, 48 h; assay type: cell-based, human; conditions: 48 h, mean of 2 independent experiments, 0 = less than 10 nM, cell line not given, read-out: IC50 of inhibitors on cell lines, m (mean)
Description: as §1, §2, §3, §4

[13] = test system: primary murine bone-marrow neutrophils; test: Live cell imaging viability of primary bone-marrow neutrophils; conditions: G-CSF- or GM-CSF-primed; inhibitors at 1 μM; over 24 hours
Description: Using a high-throughput live cell imaging approach reported previously [15], we examined the effect of the kinase inhibitors on the viability of bone marrow neutrophils to determine their potential to cause neutropenia (Figure 2). Because G-CSF and GM-CSF are dominant regulators of granulopoiesis and neutrophil survival, and are commonly used in a clinical setting to mobilize hematopoietic stem cells into the blood and increase neutrophil production [27–31], we treated cells with these cytokines immediately prior to drug exposure. The addition of either cytokine prevents constitutive neutrophil apoptosis thereby increasing the window for detection of changes in viability induced by drug treatments.
For all above, data represent mean ± SEM from three independent samples.
Mouse bone marrow neutrophils were prepared as described [15]. Neutrophils were resuspended in phenol red-free DMEM/10% FBS for imaging studies. The purity of neutrophil preparations was routinely 96% ± 4% (Mean ± SD, n = 50) as assessed by cytology following May-Grünwald/Giemsa staining.
Kinase inhibitors were purchased from SYN kinase (Melbourne, Australia) and were used at 1 μM, unless otherwise specified, with dilutions performed in assay buffer containing 0.1% DMSO.
Viability was monitored using 2 μg/mL PI (Sigma). Images were captured every 30-60 min by the Zeiss Axiovert 200M Microscope at 37 °C/10% CO2. Quantitative analysis was performed using a custom-scripted MetaMorph (Molecular Devices) journal suite incorporating the count nuclei function, reconstruction & subtraction functions and Integrated Morphometry Analysis to select and analyze cells of interest.

| SMILES | IC50 ([2]; Homo sapiens, MOLT-4) [µM] | IC50 ([3]; Homo sapiens) [µM] | IC50 ([4]; Homo sapiens) [µM] | IC50 ([5]; Homo sapiens, OCI-AML-3) [µM] | IC50 ([6]; Homo sapiens, U-937) [µM] | IC50 ([7]; Homo sapiens) [µM] | IC50 ([9]; Homo sapiens) [µM] | IC50 ([12]; Homo sapiens) [µM] | IC50 [2] [µM] | IC50 [3] [µM] | IC50 [4] [µM] | IC50 [5] [µM] | IC50 [6] [µM] | IC50 [7] [µM] | IC50 ([1]; Homo sapiens, KU812) [µM] | IC50 ([8]; Homo sapiens, EOL1) [µM] | IC50 ([10]; Homo sapiens) [µM] | IC50 ([11]; Homo sapiens) [µM] | IC50 [1] [µM] | IC50 [8] [µM] | further results |
| --- | --- | --- | --- | --- | --- | --- | --- | --- | --- | --- | --- | --- | --- | --- | --- | --- | --- | --- | --- | --- | --- |
| Cc1cc(Nc2nc(N[C@@H](C)c3ccc(F)cc3)c(C#N)cc2F)n[nH]1 [AZ-960] | – | – | – | – | – | – | – | – | – | – | – | – | – | – | – | – | – | – | – | – | effect on mouse neutrophil viability (words) [13]: significantly affected neutrophil viability |
| Cc1[nH]c(/C=C2\C(=O)Nc3ccccc32)c(C)c1CCC(=O)O [SU-6668] | > 10 | 8.11 | 5.11 | > 10 | > 10 | > 10 | > 10 | > 10 | – | – | – | – | – | – | > 10 | 0.84 | > 10 | > 10 | – | – | – |
| C[C@@H]1CCN(C(=O)CC#N)C[C@@H]1N(C)c1ncnc2[nH]ccc12 [CP690550] | – | – | – | – | – | – | – | – | – | – | – | – | – | – | – | – | – | – | – | – | effect on mouse neutrophil viability (words) [13]: did not |
| CCCS(=O)(=O)Nc1ccc(F)c(C(=O)c2c[nH]c3ncc(Cl)cc23)c1F [PLX4720] | > 10 | > 10 | 5.6 | > 10 | 8.5 | 9.68 | > 10 | > 10 | – | – | – | – | – | – | 0.45 | 4.2 | > 10 | 0.84 | – | – | – |
| CC(=O)Nc1ccc([C@H](C)C(=O)Nc2ncc(C(C)C)s2)cc1 [PHA690509] | – | – | – | – | – | – | – | – | 4.68 | 5.98 | 5.89 | 6.23 | 1.05 | 3.21 | – | – | – | – | 3.93 | 5.31 | IC50 [9]: 2.35 µM; IC50 [10]: 2.88 µM; IC50 [11]: 5.39 µM; IC50 [12]: 5.98 µM |
| O=C1NC(=O)/C(=C/c2cccc(C(F)(F)F)c2)S1 [SMI-4a] | – | – | – | – | – | – | – | – | > 10 | 2.74 | 9.71 | > 10 | > 10 | > 10 | – | – | – | – | 4.54 | 0.13 | IC50 [9]: > 10 µM; IC50 [10]: > 10 µM; IC50 [11]: 5.78 µM; IC50 [12]: > 10 µM |

Continued, in another order:

| IC50 ([2]; Homo sapiens, MOLT-4) [µM] | IC50 ([3]; Homo sapiens) [µM] | IC50 ([4]; Homo sapiens) [µM] | IC50 ([5]; Homo sapiens, OCI-AML-3) [µM] | IC50 ([6]; Homo sapiens, U-937) [µM] | IC50 ([7]; Homo sapiens) [µM] | IC50 ([9]; Homo sapiens) [µM] | IC50 ([12]; Homo sapiens) [µM] | IC50 [2] [µM] | IC50 [3] [µM] | IC50 [4] [µM] | IC50 [5] [µM] | IC50 [6] [µM] | IC50 [7] [µM] | SMILES | IC50 ([1]; Homo sapiens, KU812) [µM] | IC50 ([8]; Homo sapiens, EOL1) [µM] | IC50 ([10]; Homo sapiens) [µM] | IC50 ([11]; Homo sapiens) [µM] | IC50 [1] [µM] | IC50 [8] [µM] | further results |
| --- | --- | --- | --- | --- | --- | --- | --- | --- | --- | --- | --- | --- | --- | --- | --- | --- | --- | --- | --- | --- | --- |
| 2.37 | 5.72 | 0.44 | 3.36 | 2.06 | 2.11 | 1.8 | 4.31 | – | – | – | – | – | – | CN(C)C/C=C/C(=O)Nc1cc2c(Nc3ccc(F)c(Cl)c3)ncnc2cc1O[C@H]1CCOC1 [TOVOK] | 2.71 | 0.68 | 1.94 | 5.02 | – | – | – |
| – | – | – | – | – | – | – | – | > 10 | > 10 | > 10 | > 10 | > 10 | > 10 | Cn1c(=O)c(Oc2ccc(F)cc2F)cc2cnc(NC3CCOCC3)nc21 [R1487] | – | – | – | – | > 10 | 1.41 | IC50 [9]: > 10 µM; IC50 [10]: > 10 µM; IC50 [11]: > 10 µM; IC50 [12]: > 10 µM |
| 9.77 | 8.85 | 0.08 | 4.87 | 7.44 | 4.38 | 7.58 | 7.42 | – | – | – | – | – | – | COc1cc2c(N3CCN(C(=O)Nc4ccc(OC(C)C)cc4)CC3)ncnc2cc1OCCCN1CCCCC1 [Tandutinib] | 6.6 | 0.02 | > 10 | 7.91 | – | – | – |
| 2.59 | 0.43 | 0.05 | 0.8 | 5.46 | 4.96 | 2.45 | 5.75 | – | – | – | – | – | – | Cc1cc(Nc2cc(N3CCN(C)CC3)nc(Sc3ccc(NC(=O)C4CC4)cc3)n2)[nH]n1 [VX-680] | 0.18 | 0.07 | 7.99 | 0.53 | – | – | – |
| 6.79 | 2.73 | 0.86 | > 10 | 9.46 | 6.28 | 7.28 | > 10 | – | – | – | – | – | – | COc1cc2c(Nc3ccc(Br)cc3F)ncnc2cc1OCC1CCN(C)CC1 [Vandetanib] | 0.82 | 0.19 | > 10 | 1.51 | – | – | – |
| – | – | – | – | – | – | – | – | 3.92 | > 10 | 6.41 | 0.82 | 2.32 | 9.47 | COc1ccc2c(c1OC)N=C(NC(=O)c1cccnc1)N1CCN=C21 [PIK-90] | – | – | – | – | > 10 | 5.09 | IC50 [9]: 2.24 µM; IC50 [10]: > 10 µM; IC50 [11]: > 10 µM; IC50 [12]: 5.41 µM |
